Measurements as given in PMC5564600 (Oncotarget, 2017).

How the values were obtained:
G2019S mutant of LRRK2 = biological target: T1, G2019S mutant of LRRK2 (Homo sapiens, UniProt Q5S007, G2019S); experiment: KINOMEscan, LRRK2 G2019S; format: binding; conditions: for remaining binding at 1 µM / remaining binding at 10 µM: kinase LRRK2(G2019S); for remaining binding at 1 µM: read-out: % of control at 1 µM; for remaining binding at 10 µM: read-out: % of control at 10 µM
T1 construct: purchased Ambit Biosciences (scanMAXX KINOMEscan)

[1] = biological target: T2, pseudokinase JH2 domain of JAK1 (Homo sapiens, UniProt P23458); experiment: KINOMEscan, JAK1 JH2 domain; format: binding; conditions: for remaining binding at 1 µM / remaining binding at 10 µM: kinase JAK1(JH2domain-pseudokinase); for remaining binding at 1 µM: read-out: % of control at 1 µM; for remaining binding at 10 µM: read-out: % of control at 10 µM
T2 construct: the pseudokinase JH2 domain of JAK1 (89%); purchased Ambit Biosciences (scanMAXX KINOMEscan)

[2] = biological target: T3, catalytic JH1 domain of JAK1 (Homo sapiens, UniProt P23458); experiment: KINOMEscan, JAK1 JH1 domain; format: binding; conditions: for remaining binding at 1 µM / remaining binding at 10 µM: kinase JAK1(JH1domain-catalytic); for remaining binding at 1 µM: read-out: % of control at 1 µM; for remaining binding at 10 µM: read-out: % of control at 10 µM
T3 construct: the catalytic JH1 domains of JAK1 and JAK2; purchased Ambit Biosciences (scanMAXX KINOMEscan)

FLT3 (D835Y mutant) = biological target: T4, FLT3 (D835Y mutant) (Homo sapiens, UniProt P36888, D835Y); experiment: KINOMEscan, FLT3 D835Y; format: binding; conditions: for remaining binding at 1 µM / remaining binding at 10 µM: FLT3(D835Y); for remaining binding at 1 µM: read-out: % of control at 1 µM; for remaining binding at 10 µM: read-out: % of control at 10 µM
T4 construct: purchased Ambit Biosciences (scanMAXX KINOMEscan)
T4 sequence (P36888 27-993 D835Y): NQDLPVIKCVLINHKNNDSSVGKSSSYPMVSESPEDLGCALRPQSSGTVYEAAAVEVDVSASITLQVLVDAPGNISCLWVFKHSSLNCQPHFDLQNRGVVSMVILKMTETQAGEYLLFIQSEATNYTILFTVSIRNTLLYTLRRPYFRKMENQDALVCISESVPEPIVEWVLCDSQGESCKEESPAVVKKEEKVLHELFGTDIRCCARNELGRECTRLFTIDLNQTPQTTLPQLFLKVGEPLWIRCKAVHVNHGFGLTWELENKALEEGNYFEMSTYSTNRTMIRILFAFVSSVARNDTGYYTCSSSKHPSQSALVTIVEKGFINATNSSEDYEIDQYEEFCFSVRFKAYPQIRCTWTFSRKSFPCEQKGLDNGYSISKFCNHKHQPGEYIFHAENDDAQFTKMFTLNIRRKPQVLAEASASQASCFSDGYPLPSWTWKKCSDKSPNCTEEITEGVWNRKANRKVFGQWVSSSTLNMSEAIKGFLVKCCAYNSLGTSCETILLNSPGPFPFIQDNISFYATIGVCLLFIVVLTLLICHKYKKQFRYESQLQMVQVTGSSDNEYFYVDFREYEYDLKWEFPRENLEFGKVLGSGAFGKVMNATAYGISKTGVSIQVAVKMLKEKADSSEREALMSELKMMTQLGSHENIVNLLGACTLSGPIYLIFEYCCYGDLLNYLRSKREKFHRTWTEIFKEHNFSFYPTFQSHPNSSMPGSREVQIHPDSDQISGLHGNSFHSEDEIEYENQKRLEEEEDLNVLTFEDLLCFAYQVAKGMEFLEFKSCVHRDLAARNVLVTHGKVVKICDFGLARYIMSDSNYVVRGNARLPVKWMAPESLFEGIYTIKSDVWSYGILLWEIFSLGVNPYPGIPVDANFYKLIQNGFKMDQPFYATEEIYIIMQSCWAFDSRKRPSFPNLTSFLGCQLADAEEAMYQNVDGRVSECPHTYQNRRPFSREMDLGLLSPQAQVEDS

panel of 442 kinases [3] = biological target: panel of 442 kinases (Homo sapiens, UniProt P42336, I800L); experiment: biochemical; format: binding; conditions: kinase PIK3CA(I800L); 1 µM; read-out: % of control at 1 µM
panel of 442 kinases [4] = biological target: panel of 442 kinases (Homo sapiens, UniProt P42336, H1047L); experiment: biochemical; format: binding; conditions: kinase PIK3CA(H1047L); 1 µM; read-out: % of control at 1 µM
panel of 442 kinases [5] = biological target: panel of 442 kinases (Homo sapiens, UniProt P42336, M1043I); experiment: biochemical; format: binding; conditions: kinase PIK3CA(M1043I); 1 µM; read-out: % of control at 1 µM
panel of 442 kinases [6] = biological target: panel of 442 kinases (Homo sapiens, UniProt P42336, C420R); experiment: biochemical; format: binding; conditions: kinase PIK3CA(C420R); 1 µM; read-out: % of control at 1 µM
panel of 442 kinases [7] = biological target: panel of 442 kinases (Homo sapiens, UniProt P42336, E542K); experiment: biochemical; format: binding; conditions: kinase PIK3CA(E542K); 1 µM; read-out: % of control at 1 µM
panel of 442 kinases [8] = biological target: panel of 442 kinases (Homo sapiens, UniProt P42336, E545K); experiment: biochemical; format: binding; conditions: kinase PIK3CA(E545K); 1 µM; read-out: % of control at 1 µM
panel of 442 kinases [9] = biological target: panel of 442 kinases (Homo sapiens, UniProt P42336, E545A); experiment: biochemical; format: binding; conditions: kinase PIK3CA(E545A); 1 µM; read-out: % of control at 1 µM
panel of 442 kinases [10] = biological target: panel of 442 kinases (Homo sapiens, UniProt P42336, H1047Y); experiment: biochemical; format: binding; conditions: kinase PIK3CA(H1047Y); 1 µM; read-out: % of control at 1 µM
PI3Kγ = PI3Kγ (Homo sapiens, UniProt P48736); experiment: PI3K (human) HTRF assay, PI3Kγ; format: biochemical; conditions: ATP 10 μM, mean ± SEM
panel of 442 kinases [11] = biological target: panel of 442 kinases (Homo sapiens, UniProt P42336, Q546K); experiment: biochemical; format: binding; conditions: kinase PIK3CA(Q546K); 1 µM; read-out: % of control at 1 µM
panel of 442 kinases [12] = biological target: panel of 442 kinases (Homo sapiens, UniProt P42336); experiment: biochemical; format: binding; conditions: kinase PIK3CA; 1 µM; read-out: % of control at 1 µM
panel of 442 kinases [13] = biological target: panel of 442 kinases (Homo sapiens, UniProt Q16584); experiment: biochemical; format: binding; conditions: kinase MLK3; 1 µM; read-out: % of control at 1 µM
mTOR = mTOR (Homo sapiens, UniProt P42345); experiment: SelectScreen Z'LYTE kinase assay (Invitrogen), mTOR; format: biochemical; conditions: determined by Invitrogen, mean ± SEM, n=2

Nc1cc(C(F)(F)F)c(-c2cc(N3CCOCC3)nc(N3CCOCC3)n2)cn1 [Buparlisib] was tested, and the remaining binding at 1 µM (G2019S mutant of LRRK2) was 88%, the remaining binding at 10 µM (G2019S mutant of LRRK2) was 80% and the remaining binding at 1 µM [1] was 89%. For the same compound, the remaining binding at 10 µM [1] was 76%, the remaining binding at 1 µM [2] was 96% and the remaining binding at 10 µM [2] was 100%. For the same compound, the remaining binding at 1 µM (FLT3 (D835Y mutant)) was 70% and the remaining binding at 10 µM (FLT3 (D835Y mutant)) was 42%.

Cn1c(=O)n(-c2ccc(C(C)(C)C#N)cc2)c2c3cc(-c4cnc5ccccc5c4)ccc3ncc21 [Dactolisib, 2-methyl-2-[4-(3-methyl-2-oxo-8-quinolin-3-yl-2,3-dihydroimidazo[4,5-c]quinolin-1-yl)-phenyl] propionitrile] was tested, and the remaining binding at 1 µM (G2019S mutant of LRRK2) was 53%, the remaining binding at 1 µM [1] was 43% and the inhibition at 1 µM ([2]; 1 μM) was > 80%. It also gave a remaining binding at 1 µM [2] of 12%, a remaining activity at 1 µM (panel of 442 kinases [3]) of 0% and a remaining activity at 1 µM (panel of 442 kinases [4]) of 0.15%. The remaining activity at 1 µM (panel of 442 kinases [5]) was 1.4%, the remaining activity at 1 µM (panel of 442 kinases [6]) was 8.1% and the remaining activity at 1 µM (panel of 442 kinases [7]) was 6.4%. It also gave a remaining activity at 1 µM (panel of 442 kinases [8]) of 5.5%, a remaining activity at 1 µM (panel of 442 kinases [9]) of 9.2% and a remaining activity at 1 µM (panel of 442 kinases [10]) of 3.8%. The inhibition at 1 µM (FLT3 (D835Y mutant); 1 μM) was > 80% and the remaining binding at 1 µM (FLT3 (D835Y mutant)) was 13%.

Work on COc1ncc(-c2ccc3nccc(-c4ccnnc4)c3c2)cc1NS(=O)(=O)c1ccc(F)cc1F [Omipalisib] yielded an IC50 (PI3Kγ) of 1.2 ± 0.2 nM, a remaining binding at 1 µM (G2019S mutant of LRRK2) of 87% and a remaining binding at 1 µM [1] of 57%. The remaining binding at 1 µM [2] was 100%, the remaining activity at 1 µM (panel of 442 kinases [3]) was 3.8% and the remaining activity at 1 µM (panel of 442 kinases [4]) was 5.6%. For the same compound, the remaining activity at 1 µM (panel of 442 kinases [11]) was 0.1%, the remaining activity at 1 µM (panel of 442 kinases [5]) was 0% and the remaining activity at 1 µM (panel of 442 kinases [6]) was 0%. For the same compound, the remaining activity at 1 µM (panel of 442 kinases [7]) was 0.05%, the remaining activity at 1 µM (panel of 442 kinases [8]) was 0.1% and the remaining activity at 1 µM (panel of 442 kinases [9]) was 0%. The remaining activity at 1 µM (panel of 442 kinases [12]) was 0%, the remaining activity at 1 µM (panel of 442 kinases [10]) was 0% and the remaining binding at 1 µM (FLT3 (D835Y mutant)) was 100%.

Compound CS(=O)(=O)N1CCN(Cc2cc3nc(-c4cccc5[nH]ncc45)nc(N4CCOCC4)c3s2)CC1 [Pictilisib, 2-(1H-indazol-4-yl)-6-(4-methanesulfonyl-piperazin-1-ylmethyl)-4-morpholin-4-yl-t hieno[3,2-d]pyrimidine] has a remaining binding at 1 µM (G2019S mutant of LRRK2) of 82%, a remaining binding at 10 µM (G2019S mutant of LRRK2) of 51% and an inhibition at 1 µM ([1]; 1 μM) of 89%. For the same compound, the remaining binding at 1 µM [1] was 11%, the remaining binding at 10 µM [1] was 0.85% and the remaining binding at 1 µM [2] was 100%. The remaining binding at 10 µM [2] was 100% and the remaining binding at 10 µM (FLT3 (D835Y mutant)) was 5.4%.

FC(F)c1nc2ccccc2n1-c1nc(N2CCOCC2)nc(N2CCOCC2)n1 [ZSTK474, 2-(difluoromethyl)-1-[4,6-di(4-morpholinyl)-1,3,5-triazin-2-yl]-1H-benzimidazole] was tested, and the “binding to LRRK2 G2019S” value (G2019S mutant of LRRK2; 1 μM) was 99.7%, the remaining binding at 1 µM (G2019S mutant of LRRK2) was 0.3% and the remaining binding at 1 µM [1] was 100%. The remaining binding at 1 µM [2] was 98%, the remaining activity at 1 µM (panel of 442 kinases [13]) was 56% and the IC50 (mTOR) was 102 ± 19 nM. For the same compound, the remaining binding at 1 µM (FLT3 (D835Y mutant)) was 84%.
